How the values were obtained:
[1] = test system: PMA-induced inflammation in mouse ears; assay: In Vivo Assay--Mouse Ear model, PMA-induced inflammation; design: species or system mouse (male CD-1); settings: concentration tested 5%, topical to ear, 6 hours; FIG. 1
Method: A common in vivo model for the evaluation of anti-inflammatory agents is PMA-induced inflammation in mouse ears. This method is described in "Pharmacological Methods in the Control of Inflammation," Joseph Y. Chang and Alan J. Lewis (eds), Alan R. Liss, Inc., New York, pp 221-223 (1989). In this assay, edema, which is a characteristic of inflammation, is quantified by determining ear thickness or ear weight approximately 6 hours after applying PMA to the ear.
1. Mice: Male CD-1, 21-24 g (Product Number 3002) obtainable from Harlan Sprague Dawley, Indianapolis, Ind., USA.
a. Prepare 0.01% (w/v) PMA in a mixture of equal volumes of acetone and ethanol;
b. Prepare 0.01% (w/v) PMA and 5% (w/v) test compound in a mixture of equal volumes of acetone and ethanol;
c. Divide 12 mice into 4 groups of 3 mice each;
d. Treat the first group of mice by applying 20 μL of a mixture of equal volumes of acetone and ethanol (vehicle) to the left ear using a micropipetter;
e. Treat the second group of mice by applying 20 μL of PMA solution to the left ear;
f. Treat the other two groups of mice by applying 20 μL of PMA/test compound solution to the left ear;
g. Wait 6 hours and euthanize the mice in a CO2 chamber;
h. Cut the ears and punch out circles of 6-mm diameter; and
i. Measure the weight of three appropriate ear punches in the same group together.

[2] = test system: Mouse Macrophage RAW 264.7; assay: In Vitro Chemiluminescence Assay: inhibition of respiratory burst in PMA-stimulated mouse macrophage RAW 264.7; type: cell-based
Source text: The cells are capable of phagocytosis and undergo an oxidative burst in response to appropriate signals. Agents that inhibit the activation of these cell in vitro are therefore inhibitors of critical steps in inflammatory processes.
Activation of macrophages and other phagocytic cell types initiates a cascade of actions that include increased oxygen consumption (respiratory burst) and production of oxygen radicals. These events can be measured m a variety of ways, including chemiluminescence based on the addition of luminol (see M. A. Trush et al, (1978), The generation of chemiluminescence by phagocytic cells, Methods in Enzymology 56:462-494). Because chemiluminescence is induced by the increased production of oxygen radicals that are thought to be important in intracellular killing of bacteria, chemiluminescence has long been used as an index of phagocytic cell activity. In addition, oxygen radical production is associated with inflammatory responses and may have adverse consequences in non-infectiousinflammation. For this reason, macrophage activation is of critical importance in studies of the inflammatory process. Agents that reduce macrophage activation are likely to have utility as anti-inflammatory agents.
1. Cell line: Raw 264.7 (ATCC TIB-71, attachment dependent).
2. Culture medium: Dulbecco's Modified Eagle's Medium (DMEM) with 10% Fetal Bovine Serum (FBS).
3. Standard protocol for culturing cell lines: in T-75 or T-150 flasks; 37° C.; 95% air, 5% CO2; 100% humidity;
a. Cell line is passaged when approximately 80% confluent; with trypsin (1 mg/mL) and ethylenediaminetetraacetic acid (EDTA) (1 mM in Ca-Mg free Hank's balanced salt solution); at a 1:4 to 1:5 split;
b. All procedures are performed aseptically in a class II biological safety cabinet using standard BL-2 containment procedures. In order to prevent genetic drift in stock cell lines, fresh cultures are prepared at approximately monthly intervals with cells thawed from liquid nitrogen storage.
a. After cell passage, count cells with a hemacytometer;
b. Adjust cell concentration to approximately 1,000,000 cells per mL;
c. Suspend cells in DMEM lacking phenol red and without FBS;
d. Pipette 1 mL of cell suspension into a standard luminometer cuvette (12×75 mm), commercially obtainable from Analytical Luminescence Laboratories, San Diego, Calif., USA;
e. Add luminol to final concentration of 0.2 mM;
f. Add test compound dissolved in phosphate buffered saline (PBS) for final concentration levels ranging from 0 to 10 μM;
g. Add 100 nanograms of phorbol myristate acetate (PMA): and
h. Wait 1 minute and read photo counts (i.e., luminescence) on a Monolight 2010 luminometer available from Analytical Luminescence Laboratories, San Diego.
Background--no test compound present; no PMA present;
Control--no test compound present;
Calculate: [formula] where L is luminescence. 6.

[3] = test system: TNB-induced inflammation in rat colon; assay: In Vivo Assay--Rat Ulcerative Colitis Model (TNB-induced); design: species or system rat (male Sprague-Dawley); settings: 150 mg/kg, rectal, once a day for 5 days; FIG. 2
Source text: The model described in this section provides a tool for investigating the effect of compounds in colonic intimation. This model and the experimental methods are described in the following reference: Luck, Michael S. and Bass, Paul, (1993), "Effect of Epidermal Growth Factor on Experimental Colitis in the Rat," J. Pharmacol. Exp. Therap. 264:984-990. In this assay, inflammatory lesions in the rat colon are induced by the intracolonic administration of 2,4,6-trinitrobenzenesulfonic acid.
1. Rats: Male Sprague-Dawley, 185-195 g obtainable from Harlan Sprague Dawley, Indianapolis, Ind., USA;
a. Prepare 100 mg/mL 5-aminosalicylic acid (5-ASA), 50 mg/mL CPR-2015, and 150 mg/mL CPR-2015 in saline;
b. Divide 34 rats into 4 groups of 8 rats each and one group of two rats;
c. Leave the group with two rats completely untreated;
d. Treat the other four groups of rats with 200 μl of Saline, 500 μl of 100 mg/mL 5-ASA, 200 μl of 50 mg/mL CPR-2015, or 200 μl of 150 mg/mL CPR-2015. These treatments are administered rectally with an 8-cm catheter;
e. After one hour, treat the above four groups of rats rectally with 500 μl of 100 mg/mL 2,4,6-trinitrobenzenesulfonic acid (TNB) in 30% ethanol and 70% saline;
f. Repeat the treatments described in paragraph 2(d) once a day for a total of 5 days;
g. On the 6th day, euthanize the rates in a CO2 chamber; and
h. […]

[4] = test system: carrageenan-induced paw edema in the rat; assay: In Vivo Assay--Rat Carrageenan-Induced Paw Edema; design: species or system rat (male Sprague-Dawley); settings: intraperitoneal, 6 hours; FIG. 3
Source text: The model, which provides a tool for investigating the effect of compounds on paw intimation, is described in the following reference: Bartlett, R. R., et al. (1993), "Effects of leflunomide on immune responses and models of inflammation," Springer Semin Immunopathol 14:381-394. It essentially consists of the following:
1. Rats: Male Sprague-Dawley, approximately 165 g obtainable from Harlan Sprague Dawley, Indianapolis, Ind., USA;
a. Measure the volume of the left hind paw by strain gauge/fluid immersion;
b. Inject 100 μL of 1% carrageenan in saline intradermally into the left hind foot pad;
c. Inject vehicles or test compounds dissolved in either saline (CPR-2015) or 50% saline and 50% ethanol (indomethacin, dexamethasone, and CPR-2014) intraperitoneally, placing 3-5 rats in each treatment group;
d. Six hours later, measure the volume of the left hind paw by strain gauge/fluid immersion;
e. Calculate average percent increase in paw volume for each treatment group.

Compound | inhibition of PMA-induced inflammation in mouse ear [1] | inhibition at 0.1 µM ([2]; Mus musculus, RAW264.7, Concentration 0.1 µM, PMA-stimulated RAW 264.7, luminol chemiluminescence) | inhibition at 0.3 µM ([2]; Mus musculus, RAW264.7, Concentration 0.3 µM, PMA-stimulated RAW 264.7, luminol chemiluminescence) | inhibition at 1 µM ([2]; Mus musculus, RAW264.7, Concentration 1 µM, PMA-stimulated RAW 264.7, luminol chemiluminescence) | inhibition at 3 µM ([2]; Mus musculus, RAW264.7, Concentration 3 µM, PMA-stimulated RAW 264.7, luminol chemiluminescence) | inhibition at 10 µM ([2]; Mus musculus, RAW264.7, Concentration 10 µM, PMA-stimulated RAW 264.7, luminol chemiluminescence) | inhibition of PMA-induced macrophage activation ([2]; at concentrations above 0.3 μM) | inhibition of TNB-induced inflammation in rat colon [3] | inhibition of carrageenan-induced edema in rat paw [4]
CCCCCCCCCCCCCCCC(=O)Nc1ccc(OP(=O)([O-])OCC[N+](C)(C)C)c(C(C)=O)c1 [CPR-2015, (o-acetyl-p-N-hexadecanamido-phenyl)-O-phosphocholine] | completely inhibited | 13% | 63% | 94% | 97% | 99% | marked inhibition | marked inhibition | marked inhibition
CCCCCCCCCCCCCCCC(=O)Nc1ccc(O)c(C(C)=O)c1 [CPR-2014, 1-(5-hexadecanamido-2-hydroxy-phenyl)-ethanone] | partially inhibited |  |  |  |  |  |  |  | marked inhibition

Reference: patent publication US5661138A, “(o-Acyl-p-N-acylamino-phenyl)-O-phosphoethanolamines” (Clarion Pharmaceutical, Inc., priority 1996, dated 1997)
